Key:
[1] = Test 3 (PDMO-018): adverse events
Procedure: Volunteers were asked to report any changes in normal health to the investigator. The investigator recorded in the CRFs the event, date and time for onset and cessation, frequency, severity, outcome, causality, classification and any action taken.
Further a urine sample was screened for drug abuse and pregnancy test was performed for female volunteers. If negative drugs of abuse and pregnancy test the volunteers were challenged in the first period only with a direct i.v. injection of about 0.5 ml naloxone 0.4 mg/ml (Narcan®).

[2] = cited from earlier work

With O=C1CC[C@@]2(O)[C@H]3Cc4ccc(O)c5c4[C@@]2(CCN3CC2CC2)[C@H]1O5 [naltrexone] the “adverse events (number)” value [1] was 13 AEs.
In the case of CN1CC[C@]23c4c5ccc(O)c4O[C@H]2[C@@H](O[C@@H]2O[C@H](C(=O)O)[C@@H](O)[C@H](O)[C@H]2O)C=C[C@H]3[C@H]1C5 [morphine-6-glucuronide], the “half-life, comparison” value ([2]; in vivo) is given as “longer half-life”.
For CN1CC[C@]23c4c5ccc(O)c4O[C@H]2[C@@H](O)C=C[C@H]3[C@H]1C5 [morphine], the “average duration of action for the first single dose” value ([2]; 10 mg of oral, i.m. or s.c. morphine) is given as 4 to 5 h.
